Results on four molecules are retold here after paper PMC9857891, “Optimization and Molecular Mechanism of Novel α-Glucosidase Inhibitory Peptides Derived from Camellia Seed Cake through Enzymatic Hydrolysis” (Foods, 2023).

Data set [1] deals with α-glucosidase. The data set is described as follows: α-glucosidase inhibition assay in vitro (pNPG substrate). The class given is biochemical. The conditions noted are these: synthesized peptides; read-out: α-glucosidase Inhibitory Activity (IC50). The procedure: (§1) The α-glucosidase inhibition activity was performed as described in the literature. In a 96-well enzyme plate, 40 μL of PBS buffer solution (pH 6.86, 0.1 M), 40 μL of sample solution, and 80 μL of α-glucosidase solution (0.2 U/mL) were added, mixed well, and reacted at 37 °C for 15 min. Next, 80 μL of 2.5 mM p-nitrophenyl-α-D-glucopyranoside (pNPG, 0.1 M, pH 6.8 in PBS) was added, mixed well, and reacted at 37 °C for 20 min. Finally, 150 μL of 0.2 M Na2CO3 solution was added to stop the reaction, which was then measured for absorbance values at 405 nm A1. Data were collected for three parallel experiments. (1) α-glucosidase inhibitory activity (%) = A0− (A 1− A2)/ A0 × 100% where A0 is the absorbance of an equal amount of PBS buffer in place of the sample; A2 is the absorbance of an equal amount of PBS buffer in place of the α-glucosidase solution and pNPG solution.

The subject of data set [2] is α-glucosidase. The experiment in a line: Simulated gastrointestinal digestion in vitro, residual α-glucosidase inhibitory activity. The class given is in vitro ADME. The conditions noted are these: 37 °C; for loss of α-glucosidase inhibitory activity after SGID: SGF 120 min then SIF 120 min; for loss of α-glucosidase inhibitory activity after simulated gastric digestion (SGD): SGF, 120 min. The procedure: as §1
The method of simulated gastrointestinal digestion (SGID) follows the previous method with slight modifications. Simulated gastric fluid (SGFs) and simulated intestinal fluid (SIFs) are both purchased from Shanghai Yuanye Biotechnology Co., Ltd., as previously mentioned. In brief, the synthesized peptide LLVLYYEY and LLLLPSYSEF was pre-dissolved to 4 mg/mL in pure water. LLVLYYEY and LLLLPSYSEF aqueous solution was mixed with SGFs (1:1, v/v) and digested at 37 °C for 120 min. SIFs (1:1, v/v) was then mixed and the mixture was incubated for 120 min. After 120 min of incubation, the pH was adjusted to 7 by NaOH (1M) to stop the simulated gastric digestion (SGD) phase; after 240 min of incubation the simulated intestinal digestion (SID) phase was stopped by a boiling water bath for 10 min.

Where a SMILES comes first, the peptide text is derived from it. Where no end group is shown, it is not given here.

Regarding `C[C@H](N)C(=O)N[C@H](C(=O)N[C@@H](CC(N)=O)C(=O)N1CCC[C@H]1C(=O)N1CCC[C@H]1C(=O)N[C@@H](CS)C(=O)N[C@@H](CS)C(=O)N[C@@H](CCC(N)=O)C(=O)N1CCC[C@H]1C(=O)O)[C@@H](C)O` [ATNPPCCQP, Ala-Thr-Asn-Pro-Pro-Cys-Cys-Gln-Pro] (H-ATNPPCCQP-OH), the IC50 (commonly the midpoint of a concentration-inhibition curve) in data set [1] was greater than 10 mM.

Regarding `CC(C)C[C@H](N)C(=O)N[C@@H](CS)C(=O)N[C@@H](CC(=O)O)C(=O)N[C@@H](CCC(N)=O)C(=O)N[C@@H](CS)C(=O)N1CCC[C@H]1C(=O)N1CCC[C@H]1C(=O)N[C@@H](Cc1c[nH]cn1)C(=O)N[C@@H](C)C(=O)O` [LCDQCPPHA, Leu-Cys-Asp-Gln-Cys-Pro-Pro-His-Ala] (H-LCDQCPPHA-OH), the IC50 in data set [1] is 4.32 mM.

For “LLLLPSYSEF [LLLLPSYSEF, Leu-Leu-Leu-Leu-Pro-Ser-Tyr-Ser-Glu-Phe]”, in data set [2], the “loss of α-glucosidase inhibitory activity after SGID” value was “significant loss of activity” and the “loss of α-glucosidase inhibitory activity after simulated gastric digestion (SGD)” value is on record as “essentially no loss”.

As for “LLVLYYEY [LLVLYYEY, Leu-Leu-Val-Leu-Tyr-Tyr-Glu-Tyr]”, in data set [2], the “loss of α-glucosidase inhibitory activity after SGID” value is “significant loss of activity” and the “loss of α-glucosidase inhibitory activity after simulated gastric digestion (SGD)” value was “essentially no loss”.
